Reference: the NIST ThermoML archive (doi:10.1021/je100967k)

Experiments:
[1] = xn = mol fraction of the nth substance listed; conditions: 101 kPa, Liquid; for speed of sound: Pulse-echo method
[2] = refractive index (Na D-line) (dimensionless); xn = mol fraction of the nth substance listed; conditions: 101 kPa, Liquid, Standard Abbe refractometry

CN1CCCC1=O [N-methylpyrrolidone] + O
Conditions | mass density, [1] [kg/m3] | refractive index, [2] | speed of sound, [1] [m/s] | viscosity, [1] [mPa·s]
293.15 K, x1 = 0.1 | 1030.11 | 1.3907 | 1713.9 | 3.332
293.15 K, x1 = 0.2 | 1047.15 | 1.4221 | 1766.5 | 5.903
293.15 K, x1 = 0.3001 | 1052.4 | 1.4402 | 1751.6 | 6.774
293.15 K, x1 = 0.3994 | 1051.69 | 1.4507 | 1718.4 | 5.724
293.15 K, x1 = 0.4997 | 1048.9 | 1.4573 | 1683.7 | 4.469
293.15 K, x1 = 0.6001 | 1045.08 | 1.4618 | 1651.6 | 3.566
293.15 K, x1 = 0.6997 | 1041.48 | 1.4648 | 1623.8 | 2.865
293.15 K, x1 = 0.7982 | 1038.44 | 1.4673 | 1601.2 | 2.394
293.15 K, x1 = 0.899 | 1035.42 | 1.469 | 1581 | 2.041
293.15 K, x1 = 1 | 1032.87 | 1.4706 | 1565.3 | 1.858
303.15 K, x1 = 0.1 | 1023.58 | 1.3882 | 1694.6 | 2.372
303.15 K, x1 = 0.2 | 1038.47 | 1.4187 | 1732 | 3.958
303.15 K, x1 = 0.3001 | 1043.03 | 1.4363 | 1713 | 4.365
303.15 K, x1 = 0.3994 | 1042.22 | 1.4467 | 1679.1 | 3.959
303.15 K, x1 = 0.4997 | 1039.51 | 1.4533 | 1644.5 | 3.318
303.15 K, x1 = 0.6001 | 1035.8 | 1.4576 | 1612.7 | 2.71
303.15 K, x1 = 0.6997 | 1032.32 | 1.4608 | 1585.3 | 2.279
303.15 K, x1 = 0.7982 | 1029.36 | 1.4628 | 1562.6 | 1.969
303.15 K, x1 = 0.899 | 1026.41 | 1.4649 | 1542.6 | 1.705
303.15 K, x1 = 1 | 1023.95 | 1.4664 | 1526.5 | 1.553
313.15 K, x1 = 0.1 | 1016.67 | 1.3863 | 1674 | 1.75
313.15 K, x1 = 0.2 | 1029.62 | 1.4165 | 1697 | 2.749
313.15 K, x1 = 0.3001 | 1033.55 | 1.4331 | 1674.3 | 3.01
313.15 K, x1 = 0.3994 | 1032.64 | 1.4425 | 1639.3 | 2.89
313.15 K, x1 = 0.4997 | 1030.02 | 1.4492 | 1604.6 | 2.51
313.15 K, x1 = 0.6001 | 1026.44 | 1.4534 | 1573.2 | 2.153
313.15 K, x1 = 0.6997 | 1023.08 | 1.4565 | 1546.8 | 1.834
313.15 K, x1 = 0.7982 | 1020.23 | 1.4584 | 1523.9 | 1.641
313.15 K, x1 = 0.899 | 1017.37 | 1.4604 | 1504.1 | 1.46
313.15 K, x1 = 1 | 1015.03 | 1.4621 | 1487.8 | 1.324
323.15 K, x1 = 0.1 | 1009.4 | 1.384 | 1651.4 | 1.348
323.15 K, x1 = 0.2 | 1020.59 | 1.4114 | 1661.6 | 2.065
323.15 K, x1 = 0.3001 | 1023.92 | 1.4283 | 1634.9 | 2.215
323.15 K, x1 = 0.3994 | 1022.94 | 1.4387 | 1599.4 | 2.161
323.15 K, x1 = 0.4997 | 1020.43 | 1.445 | 1565.5 | 1.959
323.15 K, x1 = 0.6001 | 1016.99 | 1.4495 | 1534.1 | 1.706
323.15 K, x1 = 0.6997 | 1013.78 | 1.4524 | 1507.6 | 1.485
323.15 K, x1 = 0.7982 | 1011.06 | 1.4546 | 1485.4 | 1.361
323.15 K, x1 = 0.899 | 1008.3 | 1.4564 | 1466 | 1.242
323.15 K, x1 = 1 | 1006.1 | 1.4576 | 1450.2 | 1.146
